Measured values from ChEMBL document CHEMBL3272350, “Drugs derived from cannabinoids. 4. Effect of alkyl substitution in sulfur and carbocyclic analogs” (J Med Chem, 1976).
Calls of active or inactive are those of the source.

Key:
[1] = system: Mus musculus; assay: Antidepressant activity in mouse assessed as potentiation of dopa-induced motor responses at 5 mg/kg, po pretreated with compound followed by dopa challenge for 4 hrs; assay type: functional, organism-based; design: dose 5 mg/kg
[2] = system: Mus musculus; assay: Analgesic activity in po dosed mouse by hot-plate test; assay type: functional
[3] = system: Mus musculus; assay: Anticonvulsant activity in mouse assessed as protection against audiogenic seizure at 10 mg/kg, po administered for 1 hr prior to testing relative to control; assay type: functional
[4] = system: Felis catus; assay: Sedative-hypnotic activity in cat assessed as increase in total sleep time at 0.5 mg/kg, po administered with diet for 15 to 20 mins measured for 14 hrs; assay type: functional
[5] = system: Mus musculus; assay: Antianxiety activity in albino BALB/cJ mouse assessed as reduction of footshock-induced fighting behavior at 10 mg/kg, po after 90 mins relative to control; assay type: functional; design: scale not given: the % may be the effect or the level left
[6] = system: Canis familiaris; assay: Antianxiety activity in dog assessed as decrease in reactivity and ataxia at 1 mg/kg, po administered as single dose measured every 15 mins for 24 hrs; assay type: functional, organism-based; design: dose 1 mg/kg; details: Canis lupus familiaris
[7] = Acute toxicity in po dosed Swiss-Webster mouse assessed as mortality measured for 7 days; assay type: organism-based; details: in vivo
[8] = system: Canis familiaris; assay: Antianxiety activity in dog assessed as decrease in reactivity and ataxia at 10 mg/kg, po administered as single dose measured every 15 mins for 24 hrs; assay type: functional, organism-based; design: dose 10 mg/kg; details: Canis lupus familiaris
[9] = system: Mus musculus; assay: Analgesic activity in po dosed mouse assessed as inhibition of acetic acid-induced writhing administered 30 mins prior to acetic acid challenge measured after 5 mins for 20 mins; assay type: functional
[10] = system: Felis catus; assay: Sedative-hypnotic activity in cat assessed as increase in total sleep time at 0.25 mg/kg, po administered with diet for 15 to 20 mins measured for 14 hrs; assay type: functional
[11] = system: Canis familiaris; assay: Antianxiety activity in dog assessed as decrease in reactivity and ataxia at 0.1 mg/kg, po administered as single dose measured every 15 mins for 24 hrs; assay type: functional, organism-based; design: dose 0.1 mg/kg; details: Canis lupus familiaris
[12] = system: Felis catus; assay: Sedative-hypnotic activity in cat assessed as increase in total sleep time at 0.1 mg/kg, po administered with diet for 15 to 20 mins measured for 14 hrs; assay type: functional
[13] = system: Rattus norvegicus; assay: Analgesic activity in po dosed Sprague-Dawley rat assessed as increase in pain threshold measured at 15 to 90 mins by tail-flick test; assay type: functional
[14] = system: Felis catus; assay: Sedative-hypnotic activity in cat assessed as increase in total sleep time at 2 mg/kg, po administered with diet for 15 to 20 mins measured for 14 hrs; assay type: functional
[15] = system: Canis familiaris; assay: Antianxiety activity in dog assessed as decrease in reactivity at 1 mg/kg, po administered as single dose measured every 15 mins for 24 hrs; assay type: functional, organism-based; design: dose 1 mg/kg; details: Canis lupus familiaris
[16] = system: Mus musculus; assay: Anticonvulsant activity in mouse assessed as protection against audiogenic seizure at 30 mg/kg, po administered for 1 hr prior to testing relative to control; assay type: functional
[17] = system: Canis familiaris; assay: Antianxiety activity in dog assessed as decrease in reactivity at 0.1 mg/kg, po administered as single dose measured every 15 mins for 24 hrs; assay type: functional, organism-based; design: dose 0.1 mg/kg; details: Canis lupus familiaris
[18] = system: Felis catus; assay: Sedative-hypnotic activity in cat assessed as increase in total sleep time at 1 mg/kg, po administered with diet for 15 to 20 mins measured for 14 hrs; assay type: functional

Question: With `CCCCCC(C)C(C)c1cc(O)c2c(c1)OC(C)(C)C1=C2CC(C)CC1` (stereo not given) as the compound, how does the Activity [1] read?
Answer: Active

Question: And the ED50 [2]?
Answer: 12.4 mg/kg

Question: What about the Activity [3] of the same compound?
Answer: 66%

Question: And the Time [4]?
Answer: 62 min

Question: What about the Activity [5] of the same compound?
Answer: 66%

Question: What about the Activity [6] of the same compound?
Answer: Active

Question: What about the LD50 at 168 h [7] of the same compound?
Answer: > 500 mg/kg

Question: What about the Activity [8] of the same compound?
Answer: Active

Question: And the ED50 [9]?
Answer: 19.6 mg/kg

Question: With `CCCCCC(C)C(C)c1cc(O)c2c(c1)OC(C)(C)C1=C2CC(C)(C)S1` (stereo not given) as the compound, how does the Activity [1] read?
Answer: Active

Question: What about the Activity [3] of the same compound?
Answer: 1%

Question: What about the Activity [5] of the same compound?
Answer: 1%

Question: What about the LD50 at 168 h [7] of the same compound?
Answer: > 500 mg/kg

Question: And the Activity [8]?
Answer: Active

Question: And the ED50 [9]?
Answer: > 40 mg/kg

Question: Which Activity [1] does the source give for `CCCCCC(C)C(C)c1cc(O)c2c(c1)OC(C)(C)C1=C2C(C)CS1` (stereo not given) here?
Answer: Active

Question: What about the ED50 [2] of the same compound?
Answer: 1.4 mg/kg

Question: And the Time [10]?
Answer: 50 min

Question: And the Activity [11]?
Answer: Active

Question: What about the Activity [3] of the same compound?
Answer: 33%

Question: And the Activity [5]?
Answer: 33%

Question: What about the Activity [6] of the same compound?
Answer: Active

Question: And the LD50 at 168 h [7]?
Answer: > 500 mg/kg

Question: What about the Time [12] of the same compound?
Answer: 21 min

Question: What about the ED50 [9] of the same compound?
Answer: 4.7 mg/kg

Question: For `CCCCCC(C)C(C)c1cc(O)c2c(c1)OC(C)(C)C1=C2CC(C)C1` (stereo not given), which Activity [1] is on record?
Answer: Active

Question: And the Activity [3]?
Answer: inactive

Question: What about the Activity [5] of the same compound?
Answer: 1%

Question: What about the Activity [6] of the same compound?
Answer: Active

Question: What about the LD50 at 168 h [7] of the same compound?
Answer: > 500 mg/kg

Question: And the Activity [8]?
Answer: Active

Question: And the ED50 [9]?
Answer: 22.6 mg/kg

Question: With `CCCCCC(C)C(C)c1cc(O)c2c(c1)OC(C)(C)C1=C2CC(C)(C)C1` (stereo not given) as the compound, how does the Activity [1] read?
Answer: Active

Question: What about the Activity [3] of the same compound?
Answer: inactive

Question: And the ED50 [13]?
Answer: > 40 mg/kg

Question: And the Activity [5]?
Answer: 33%

Question: And the LD50 at 168 h [7]?
Answer: > 500 mg/kg

Question: What about the Activity [8] of the same compound?
Answer: Active

Question: And the ED50 [9]?
Answer: > 40 mg/kg

Question: For `CCCCCC(C)C(C)c1cc(O)c2c(c1)OC(C)(C)C1=C2CC(C)S1` (stereo not given), which Activity [1] is on record?
Answer: Active

Question: And the Activity [3]?
Answer: 1%

Question: And the Activity [5]?
Answer: 33%

Question: What about the LD50 at 168 h [7] of the same compound?
Answer: > 500 mg/kg

Question: And the Activity [8]?
Answer: Active

Question: And the ED50 [9]?
Answer: 34 mg/kg

Question: Which results are given for `CCCCCC(C)C(C)c1cc(O)c2c(c1)OC(C)(C)C1=C2CCC1` (stereo not given)?
Answer: Time [14]: 65 min; Activity [1]: Active; ED50 [2]: 45.1 mg/kg; Activity [3]: 1%; Time [4]: 59 min; Activity [5]: 33%; Activity [15]: Active; LD50 at 168 h [7]: > 500 mg/kg; Activity [8]: Active; ED50 [9]: 25.3 mg/kg

Question: What does the source list for `CCCCCC(C)C(C)c1cc(O)c2c(c1)OC(C)(C)C1=C2C(C)CCC1` (stereo not given)?
Answer: Activity [1]: Active; ED50 [2]: 25 mg/kg; Activity [16]: 33%; Time [4]: 54 min; Activity [5]: 33%; Activity [6]: Active; LD50 at 168 h [7]: > 500 mg/kg; Activity [8]: Active; ED50 [9]: 10.5 mg/kg

Question: What does the source list for `CCCCCC(C)C(C)c1cc(O)c2c(c1)OC(C)(C)C1=C2CCS1` (stereo not given)?
Answer: Time [14]: 31 min; Activity [1]: Active; Activity [17]: Active; Activity [3]: 33%; Activity [5]: 33%; Time [18]: 30 min; LD50 at 168 h [7]: > 500 mg/kg; Activity [8]: Active

Question: For `CCCCCC(C)C(C)c1cc(O)c2c(c1)OC(C)(C)C1=C2C(C)CC1` (stereo not given), which Activity [1] is on record?
Answer: Active

Question: And the Activity [3]?
Answer: 66%

Question: And the Time [4]?
Answer: 58 min

Question: And the Activity [5]?
Answer: 66%

Question: And the Activity [6]?
Answer: Active

Question: What about the LD50 at 168 h [7] of the same compound?
Answer: > 500 mg/kg

Question: And the Activity [8]?
Answer: Active

Question: What about the ED50 [9] of the same compound?
Answer: 13.3 mg/kg
